Assay results taken from US10670605B2, “Cysteine reactive probes and uses thereof” (The Scripps Research Institute, priority 2015, dated 2020).

Experiments:
Assay in all cases: Competitive isoTOP-ABPP in situ (fragment-treated cells)
Type in all cases: cell-based
[1] = molecular target: cysteines in MDA-MB-231 and Ramos cells (Homo sapiens, UniProt Q15003)
Description: (§1) Fragments 4 and 11 were screened at 100 μM in situ. […] Site-specific engagement of electrophilic fragments was assessed by blockade of IA-alkyne probe labeling. […] Ratios for unique peptide entries were calculated for each experiment; overlapping peptides with the same modified cysteine (e.g. different charge states, MudPIT chromatographic steps or tryptic termini) were grouped together and the median ratio was reported as the final ratio (R). The peptide ratios reported by CIMAGE were further filtered to ensure the removal or correction of low quality ratios in each individual dataset. […] R values were calculated and individual datasets were filtered as described above (R value calculation and processing).

[2] = molecular target: T1, cysteines in MDA-MB-231 and Ramos cells (Homo sapiens, UniProt Q9UKX7)
T1 sequence (Q9UKX7 1-468): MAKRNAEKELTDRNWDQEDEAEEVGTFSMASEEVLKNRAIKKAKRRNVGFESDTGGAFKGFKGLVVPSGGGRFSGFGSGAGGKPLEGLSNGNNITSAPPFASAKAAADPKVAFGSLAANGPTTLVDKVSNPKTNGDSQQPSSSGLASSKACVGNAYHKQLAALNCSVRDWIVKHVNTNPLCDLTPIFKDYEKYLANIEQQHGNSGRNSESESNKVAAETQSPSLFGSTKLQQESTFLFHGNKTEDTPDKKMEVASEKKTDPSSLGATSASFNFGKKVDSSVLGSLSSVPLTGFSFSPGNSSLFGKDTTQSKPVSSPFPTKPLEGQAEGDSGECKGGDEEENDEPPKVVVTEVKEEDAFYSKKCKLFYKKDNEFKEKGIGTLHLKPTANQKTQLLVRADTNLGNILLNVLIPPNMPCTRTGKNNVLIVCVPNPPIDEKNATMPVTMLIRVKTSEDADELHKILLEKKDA
Description: as §1

[3] = molecular target: T2, cysteines in MDA-MB-231 and Ramos cells (Homo sapiens, UniProt Q8IYQ7); conditions: 200 μM, insitu, 231
T2 sequence (Q8IYQ7 1-743): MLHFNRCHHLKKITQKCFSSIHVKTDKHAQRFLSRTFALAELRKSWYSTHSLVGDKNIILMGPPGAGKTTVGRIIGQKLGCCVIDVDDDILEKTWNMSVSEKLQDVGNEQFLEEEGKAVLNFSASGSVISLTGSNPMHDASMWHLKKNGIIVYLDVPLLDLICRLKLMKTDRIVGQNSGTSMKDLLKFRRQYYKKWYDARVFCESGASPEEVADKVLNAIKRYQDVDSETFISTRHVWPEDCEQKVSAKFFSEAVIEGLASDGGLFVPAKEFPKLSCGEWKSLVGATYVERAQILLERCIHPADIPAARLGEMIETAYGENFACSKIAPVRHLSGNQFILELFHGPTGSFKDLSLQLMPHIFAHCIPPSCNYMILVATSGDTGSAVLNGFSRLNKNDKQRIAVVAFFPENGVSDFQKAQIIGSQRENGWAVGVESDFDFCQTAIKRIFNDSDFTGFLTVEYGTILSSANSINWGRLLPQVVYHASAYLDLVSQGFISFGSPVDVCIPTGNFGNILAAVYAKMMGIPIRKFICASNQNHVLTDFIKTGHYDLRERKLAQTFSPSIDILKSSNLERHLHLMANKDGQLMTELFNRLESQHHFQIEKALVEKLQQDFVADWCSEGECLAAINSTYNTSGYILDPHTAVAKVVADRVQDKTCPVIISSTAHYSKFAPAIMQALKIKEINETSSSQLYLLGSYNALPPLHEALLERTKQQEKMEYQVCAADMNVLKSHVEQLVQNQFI
Description: as §1

[4] = molecular target: T3, cysteines in MDA-MB-231 and Ramos cells (Homo sapiens, UniProt O94953); conditions: 200 μM, insitu, ramos
T3 sequence (O94953 1-1096): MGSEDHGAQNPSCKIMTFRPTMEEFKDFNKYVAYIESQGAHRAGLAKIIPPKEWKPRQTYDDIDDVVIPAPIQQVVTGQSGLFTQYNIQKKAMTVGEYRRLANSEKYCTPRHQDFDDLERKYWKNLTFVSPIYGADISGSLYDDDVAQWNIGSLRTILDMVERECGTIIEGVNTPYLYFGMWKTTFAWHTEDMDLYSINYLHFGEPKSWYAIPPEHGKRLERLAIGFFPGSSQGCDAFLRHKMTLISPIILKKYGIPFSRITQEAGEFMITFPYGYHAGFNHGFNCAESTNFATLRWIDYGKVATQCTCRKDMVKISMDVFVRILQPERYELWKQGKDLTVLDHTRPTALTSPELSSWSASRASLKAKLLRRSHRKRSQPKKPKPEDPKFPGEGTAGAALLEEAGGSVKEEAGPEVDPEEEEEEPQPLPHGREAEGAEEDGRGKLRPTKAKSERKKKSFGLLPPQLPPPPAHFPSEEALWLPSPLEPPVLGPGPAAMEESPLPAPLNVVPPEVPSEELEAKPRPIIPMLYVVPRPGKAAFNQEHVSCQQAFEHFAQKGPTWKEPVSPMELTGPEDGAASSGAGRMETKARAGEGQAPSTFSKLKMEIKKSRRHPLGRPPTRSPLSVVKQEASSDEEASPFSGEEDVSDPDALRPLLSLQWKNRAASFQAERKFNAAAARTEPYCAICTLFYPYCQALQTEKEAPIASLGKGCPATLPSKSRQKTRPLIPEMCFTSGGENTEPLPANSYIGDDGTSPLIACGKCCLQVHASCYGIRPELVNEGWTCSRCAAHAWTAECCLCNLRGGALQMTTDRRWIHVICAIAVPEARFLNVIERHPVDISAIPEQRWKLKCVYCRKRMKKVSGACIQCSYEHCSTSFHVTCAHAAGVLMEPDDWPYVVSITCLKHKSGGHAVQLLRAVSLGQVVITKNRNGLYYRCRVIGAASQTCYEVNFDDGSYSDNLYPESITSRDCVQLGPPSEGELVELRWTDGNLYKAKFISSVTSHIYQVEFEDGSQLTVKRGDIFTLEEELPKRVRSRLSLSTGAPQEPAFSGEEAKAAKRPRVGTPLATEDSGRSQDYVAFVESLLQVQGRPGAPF
Description: as §1

[5] = molecular target: T4, cysteines in MDA-MB-231 and Ramos cells (Homo sapiens, UniProt Q9UPT9)
T4 sequence (Q9UPT9 1-525): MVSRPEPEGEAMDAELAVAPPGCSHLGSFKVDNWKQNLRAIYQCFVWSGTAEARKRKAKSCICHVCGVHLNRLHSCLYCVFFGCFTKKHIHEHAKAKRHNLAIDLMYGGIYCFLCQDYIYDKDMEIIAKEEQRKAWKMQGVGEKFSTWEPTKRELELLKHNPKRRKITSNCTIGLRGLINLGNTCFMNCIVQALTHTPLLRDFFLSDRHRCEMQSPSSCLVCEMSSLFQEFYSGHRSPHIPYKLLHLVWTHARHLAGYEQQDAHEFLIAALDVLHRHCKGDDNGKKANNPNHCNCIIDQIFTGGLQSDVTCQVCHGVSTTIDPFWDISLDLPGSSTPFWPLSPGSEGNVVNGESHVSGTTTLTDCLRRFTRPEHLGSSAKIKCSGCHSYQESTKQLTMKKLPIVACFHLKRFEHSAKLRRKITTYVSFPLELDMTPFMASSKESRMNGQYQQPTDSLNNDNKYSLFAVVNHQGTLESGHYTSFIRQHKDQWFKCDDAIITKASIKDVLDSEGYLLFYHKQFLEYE
Description: as §1

Chain of cysteines in MDA-MB-231 and Ramos cells (Homo sapiens, UniProt Q15003) (Q15003 whole entry): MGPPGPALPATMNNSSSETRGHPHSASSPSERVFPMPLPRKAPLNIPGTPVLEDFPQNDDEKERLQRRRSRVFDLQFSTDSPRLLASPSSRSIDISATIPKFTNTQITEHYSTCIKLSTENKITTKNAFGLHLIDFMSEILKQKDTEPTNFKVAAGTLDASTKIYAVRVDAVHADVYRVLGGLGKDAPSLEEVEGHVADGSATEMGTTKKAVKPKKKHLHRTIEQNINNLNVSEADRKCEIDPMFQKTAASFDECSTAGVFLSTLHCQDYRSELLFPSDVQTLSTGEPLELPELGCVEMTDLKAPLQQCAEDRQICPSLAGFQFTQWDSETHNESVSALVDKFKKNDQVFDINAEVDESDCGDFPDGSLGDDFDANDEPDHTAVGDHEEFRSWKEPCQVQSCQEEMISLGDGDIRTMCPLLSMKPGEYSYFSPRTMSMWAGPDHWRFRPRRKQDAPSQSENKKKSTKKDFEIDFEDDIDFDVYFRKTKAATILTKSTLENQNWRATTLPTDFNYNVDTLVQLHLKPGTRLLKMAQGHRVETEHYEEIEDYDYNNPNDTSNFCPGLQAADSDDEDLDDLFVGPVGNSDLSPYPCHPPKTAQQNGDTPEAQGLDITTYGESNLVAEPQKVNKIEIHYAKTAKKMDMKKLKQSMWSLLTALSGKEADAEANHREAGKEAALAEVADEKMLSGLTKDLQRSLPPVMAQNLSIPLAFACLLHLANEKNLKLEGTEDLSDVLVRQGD

Q: How did the “isoTOP-ABPP reactivity Q15003_C418 NCAPH” value ([1]; 200 μM, insitu, 231) turn out when COc1ccc2c(c1)CCCN2C(=O)CCl [compound 2] was run?
A: 20.0

Q: And the “isoTOP-ABPP reactivity Q9UKX7_C151 NUP50” value ([2]; 200 μM, insitu, 231)?
A: 6.1

Q: For COc1ccc(C2CC(c3cccs3)=NN2C(=O)CCl)cc1 (centres unmarked) [compound 4], which “isoTOP-ABPP reactivity Q15003_C418 NCAPH” value ([1]; 100 μM in situ 231) is on record?
A: 20.0

Q: COc1cc2c(cc1OC)CN(C(=O)CCl)CC2 [compound 8] was tested. Which “isoTOP-ABPP reactivity Q8IYQ7_C324 THNSL1” value [3] did it give?
A: 20.0

Q: O=C(CCl)N1CCC(Cc2ccccc2)CC1 [compound 9] was tested. Which “isoTOP-ABPP reactivity Q8IYQ7_C324 THNSL1” value [3] did it give?
A: 1.6

Q: O=C(CCl)N1CCN(S(=O)(=O)c2ccccc2F)CC1 [compound 10] was tested. Which “isoTOP-ABPP ratio, cysteine O94953_C694” value [4] did it give?
A: 3.9

Q: What about the “isoTOP-ABPP ratio, cysteine Q8IYQ7_C324” value [3] of the same compound?
A: 5.3

Q: What about the “isoTOP-ABPP ratio, cysteine Q9UPT9_C171” value ([5]; 200 μM, insitu, ramos) of the same compound?
A: 9.3

Q: For Cn1cc(S(=O)(=O)N2CCOCC2)cc1C(=O)NC(=O)CCl [compound 11], which “isoTOP-ABPP ratio, cysteine Q15003_C418” value ([1]; 100 μM in situ 231) is on record?
A: 1 .6

Q: And the “isoTOP-ABPP ratio, cysteine Q9UKX7_C151” value ([2]; 100 μM in situ 231)?
A: 1.0

Q: What about the “isoTOP-ABPP ratio, cysteine Q9UPT9_C171” value ([5]; 100 μM in situ 231) of the same compound?
A: 0.8

Q: O=C(CCl)NC(=O)NC12CC3CC(CC(C3)C1)C2 [compound 12] was tested. Which “isoTOP-ABPP ratio, cysteine Q9UKX7_C151” value ([2]; 200 μM, insitu, 231) did it give?
A: 6.7

Q: What does the source list for O=C(CCl)NCCc1c[nH]c2ccccc12 [compound 13]?
A: isoTOP-ABPP ratio, cysteine O94953_C694 [4]: 1.5; isoTOP-ABPP ratio, cysteine Q8IYQ7_C324 [3]: 1.3; isoTOP-ABPP ratio, cysteine Q9UPT9_C171 ([5]; 200 μM, insitu, ramos): 3.2

Q: For O=C(CCl)NC12CC3CC(CC(C3)C1)C2 [compound 21], which “isoTOP-ABPP ratio, cysteine Q8IYQ7_C324” value [3] is on record?
A: 2.0

Q: O=C(CCl)N1CCN(CC(=O)N2CCOCC2)CC1 [compound 29] was tested. Which “isoTOP-ABPP ratio, O94953_C694” value [4] did it give?
A: 1.1

Q: What about the “isoTOP-ABPP ratio Q15003_C418” value ([1]; 200 μM, insitu, ramos) of the same compound?
A: 1.4

Q: Cc1ccc(C=C(C#N)C(=O)NCCN2CCOCC2)cc1 [compound 41] was tested. Which “isoTOP-ABPP ratio Q9UKX7_C151” value ([2]; 200 μM, insitu, 231) did it give?
A: 0.8

Q: CC1CCc2ccccc2N1C(=O)CCl (centres unmarked) [compound 45] was tested. Which “isoTOP-ABPP ratio Q15003_C418” value ([1]; 200 μM, insitu, 231) did it give?
A: 20.0
